One data set has as its system Erysiphe graminis. As to the kind of experiment: Test on protective effect against Erysiphe graminis (wheat). In kind it is in vivo. As to conditions: Blumeria graminis, 168 h; 500 ppm active ingredient sprayed on wheat (Norin No. 61) at 1.5 to 2-leaf stage before inoculation; 7 days after; read-out: control level. As for the experimental part: 10 wheat seeds (variety: Norin No. 61) were sown in each plastic cup having a diameter of 5.5 cm and allowed to grow for 8 days in a greenhouse. […] After air drying, the plants were inoculated by equally sprinkling with conidia of Erysiphe graminis by using a midget duster or the like for innoculation and then incubated in a greenhouse until a development of disease. 7 days after, disease development indexes of first leaves for total pots were examined according to the standard in Test Example 3, a disease severity was determined using the expression in Test Example 3 and a control level (%) was calculated using the expression in Test Example 3.

Another data set deals with Rhizoctonia solani. As to the kind of experiment: Test on protective effect against Rhizoctonia solani (rice pot test). The class given is in vivo. As to conditions: Rhizoctonia solani, 120 h; 500 ppm active ingredient sprayed on rice (Kinmaze) at 2.5 to 3-leaf stage before inoculation; 5 days after inoculation; read-out: control level. As for the experimental part: 15 rice seeds (variety: Kinmaze) were sown in each clay pot having a diameter of 7.5 cm and allowed to grow for 3 weeks in a greenhouse. […] After air drying, the plants were inoculated by uniformly covering the surface of the soil with Rhizoctonia solani cultured in a rice-husk bran medium and incubated in a moist chamber at 30° C. […] The standard for disease development index is as follows: [table] Hereinbelow, an expression to calculate a control level (%) is shown. [formula]

The test system of a further data set is Septoria nodorum. As to the kind of experiment: Test on protective effect against Septoria nodorum (wheat). The class given is in vivo. As to conditions: Parastagonospora nodorum, 216 h; 500 ppm active ingredient sprayed on wheat (Norin No. 61) at two-leaf stage before inoculation; 9 days after; read-out: control level. Here is the method: 10 wheat seeds (variety: Norin No. 61) were sown in each plastic cup having a diameter of 5.5 cm and allowed to grow for 9 days in a greenhouse. […] After air drying, the plants were inoculated by spraying with a pycnidiospore suspension of Septoria nodorum. The inoculated plants were immediately put in a moist chamber at 25° C. (relative humidity of 100%) for 48 hours. Thereafter, the plants were transferred to a greenhouse. 9 days after, disease development indexes of first leaves for total pots were examined according to the standard in Test Example 3, a disease severity was determined using the expression in Test Example 3 and a control level (%) was calculated using the expression in Test Example 3.

Data set [1] has as its system Pseudoperonospora cubensis. As to the kind of experiment: Test on protective effect against Pseudoperonospora cubensis (cucumber seedlings). In kind it is in vivo. As to conditions: Pseudoperonospora cubensis, 144 h; 500 ppm active ingredient sprayed on cucumber (Sagami-Hanziro) seedlings before inoculation; 6 days after; read-out: control level. As for the experimental part: 4 cucumber seeds (variety: Sagami-Hanziro) were sown in each plastic cup having a diameter of 5.5 cm and allowed to grow for 7 days in a greenhouse. […] After air drying, the plants were inoculated by spraying with a conidia suspension of Pseudoperonospora cubensis. The inoculated plants were immediately put in a moist chamber at 20° C. (relative humidity of 100%) for 24 hours. Thereafter, the plants were transferred to a greenhouse. 6 days after, disease development indexes of cotyledons for total pots were examined according to the standard described below, a disease severity was determined using an expression shown below and a control level (%) was calculated using another expression shown below. The standard for disease development index is as follows: [table] Hereinbelow, an expression to calculate a disease severity (%) is shown. [formula] Hereinbelow, an expression to calculate a control level (%) is shown. [formula]

For a further data set, the system named is Pyricularia oryzae. As to the kind of experiment: whole plant or invertebrate. The class given is in vivo. As to conditions: Pyricularia oryzae, 120 h, read-out: control level.
Another data set has as its system Botrytis cinerea. As to the kind of experiment: Test on protective effect against Botrytis cinerea (cucumber seedlings). The settings on record: 500 ppm active ingredient sprayed on cucumber (Sagami-Hanziro) seedlings before inoculation; 2 days after. In kind it is in vivo. Here is the method: 4 cucumber seeds (variety: Sagami-Hanziro) were sown in each plastic cup having a diameter of 5.5 cm and allowed to grow for 7 days in a greenhouse. […] After air drying, a sterilized paper disc was immersed in a conidia suspension of Botrytis cinerea and laid on an upper side of a cucumber cotyledon for innoculation and thereafter cared in a moist chamber at 20° C.

For orientation: melting point means the temperature, or range, at which the solid turns liquid.

Turning to `CCC(C)c1c(Cl)nc(-n2cccn2)nc1N1CCC(C)CC1` (stereo not drawn) [Compound No. 1192, 5-sec-butyl-4-chloro-6-(4-methylpiperidin-1-yl)-2-(1H-pyrazol-1-yl)pyrimidine], the pest or weed control at 500 ppm in the data set on Erysiphe graminis and in the data set with Rhizoctonia solani was 100% each time.
For `CCC(C)c1cnc(-n2cccn2)nc1N1CCC(C)CC1` (stereo not drawn) [Compound No. 1190, 5-sec-butyl-4-(4-methylpiperidin-1-yl)-2-(1H-pyrazol-1-yl)pyrimidine], the pest or weed control at 500 ppm (in the data set on Erysiphe graminis; in the data set on Septoria nodorum; in data set [1]; in the data set on Rhizoctonia solani) was 100% in each case.
With `CCC(C)c1c(C#N)nc(-n2cccn2)nc1N1CCC(C)CC1` (stereo not drawn) [Compound No. 1215, 5-sec-butyl-6-(4-methylpiperidin-1-yl)-2-(1H-pyrazol-1-yl)pyrimidine-4-carbonitrile], the pest or weed control at 500 ppm (in the data set on Erysiphe graminis; in data set [1]; in the data set with Rhizoctonia solani) was 100% throughout.
`CCC(C)c1c(Cl)nc(-n2cccn2)nc1NCC(F)(F)F` (stereo not drawn) [Compound No. 0350, 5-sec-butyl-6-chloro-2-(1H-pyrazol-1-yl)-N-(2,2,2-trifluoroethyl)pyrimidine-4-amine]: the melting point was 137 to 139 °C. In addition, the pest or weed control at 500 ppm with Erysiphe graminis is 100%. The pest or weed control at 500 ppm in the data set on Pyricularia oryzae is 100%. Also, in the data set with Septoria nodorum, the pest or weed control at 500 ppm came out at 100%. In addition, the pest or weed control at 500 ppm in data set [1] was determined as 100%. Further, the pest or weed control at 500 ppm in the data set with Rhizoctonia solani came out at 100%.
On to `CCC(C)c1c(NCC(F)(F)F)nc(-n2cccn2)nc1N(CC)CC` (stereo not drawn) [Compound No. 0371, 5-sec-butyl-N^4, N^4-diethyl-2-(1H-pyrazol-1-yl)-N^6-(2,2,2-trifluoroethyl)pyrimidine-4,6-diamine], for which the pest or weed control at 500 ppm (with Erysiphe graminis; in data set [1]) was 100% each time.
For the compound `CCC(C)c1c(Cl)nc(-n2cc(Cl)cn2)nc1NCC(F)(F)F` (stereo not drawn) [Compound No. 0434, 5-sec-butyl-6-chloro-2-(4-chloro-1H-pyrazol-1-yl)-N-(2,2,2-trifluoroethyl)pyrimidine-4-amine], the melting point was in the range of 173 to 174 °C. Moreover, the pest or weed control at 500 ppm in the data set with Erysiphe graminis stood at 100%. Moreover, the pest or weed control at 500 ppm in the data set on Pyricularia oryzae turned out to be 100%. The pest or weed control at 500 ppm in the data set with Rhizoctonia solani is 100%.
With `CCC(C)c1c(NCC(F)(F)F)nc(-n2cccn2)nc1S(C)(=O)=O` (stereo not drawn) [Compound No. 0363, 5-sec-butyl-6-methylsulfonyl-2-(1H-pyrazol-1-yl)-N-(2,2,2-trifluoroethyl)pyrimidine-4-amine], the melting point was in the range of 52 to 55 °C.
Compound `CCC(C)c1c(NCC(F)(F)F)nc(-n2cccn2)nc1C1CC1` (stereo not drawn) [Compound No. 0387, 5-sec-butyl-6-cyclopropyl-2-(1H-pyrazol-1-yl)-N-(2,2,2-trifluoroethyl)pyrimidine-4-amine] returned a melting point of 84 to 85 °C. For the same compound, the pest or weed control at 500 ppm in the data set with Erysiphe graminis was determined as 100%. Besides, in the data set with Pyricularia oryzae, the pest or weed control at 500 ppm was found to be 100%. Further, the pest or weed control at 500 ppm in data set [1] came out at 100%. In addition, the pest or weed control at 500 ppm in the data set on Rhizoctonia solani stood at 100%.
Consider `CCC(C)c1c(NCC(F)(F)F)nc(-n2cccn2)nc1SC` (stereo not drawn) [Compound No. 0361, 5-sec-butyl-6-methylthio-2-(1H-pyrazol-1-yl)-N-(2,2,2-trifluoroethyl)pyrimidine-4-amine], for which the pest or weed control at 500 ppm (in the data set with Erysiphe graminis; in the data set with Pyricularia oryzae; in data set [1]; in the data set with Rhizoctonia solani) was 100% in each case.
`CCc1nc(-n2cccn2)nc(NCC(F)(F)F)c1C(C)CC` (stereo not drawn) [Compound No. 0385, 5-sec-butyl-6-ethyl-2-(1H-pyrazol-1-yl)-N-(2,2,2-trifluoroethyl)pyrimidine-4-amine] returned a melting point of 89 to 90 °C. Besides, in the data set with Erysiphe graminis, the pest or weed control at 500 ppm was 100%. The pest or weed control at 500 ppm in the data set with Pyricularia oryzae came out at 100%. Moreover, the pest or weed control at 500 ppm with Septoria nodorum was 100%. Besides, the pest or weed control at 500 ppm in data set [1] was 100%.
Turning to `CCC(C)c1c(NC(C)C)nc(-n2cccn2)nc1C(F)(F)F` (stereo not drawn) [Compound No. 0240, 5-sec-butyl-N-(1-methylethyl)-2-(1H-pyrazol-1-yl)-6-trifluoromethylpyrimidine-4-amine], the melting point was in the range of 85 to 87 °C. Further, the pest or weed control at 500 ppm in the data set with Erysiphe graminis is 100%. Moreover, the pest or weed control at 500 ppm in the data set with Pyricularia oryzae turned out to be 100%.
`CCC(C)c1c(C)nc(-n2cccn2)nc1N1CCC(C)CC1` (stereo not drawn) [Compound No. 1225, 5-sec-butyl-4-methyl-6-(4-methylpiperidin-1-yl)-2-(1H-pyrazol-1-yl)pyrimidine]: the pest or weed control at 500 ppm (in the data set with Erysiphe graminis; in the data set with Septoria nodorum; in data set [1]) was 100% each time.
Compound `CCC(C)c1c(SC)nc(-n2cccn2)nc1N1CCC(C)CC1` (stereo not drawn) [Compound No. 1204, 5-sec-butyl-6-(4-methylpiperidin-1-yl)-4-methylthio-2-(1H-pyrazol-1-yl)pyrimidine] registered a melting point of 69 to 71 °C. Moreover, the pest or weed control at 500 ppm in the data set with Erysiphe graminis came to 100%. The pest or weed control at 500 ppm in the data set with Rhizoctonia solani is 100%.
Consider `CCC(C)c1c(Br)nc(-n2cccn2)nc1NCC(F)(F)F` (stereo not drawn) [Compound No. 0351, 6-bromo-5-sec-butyl-2-(1H-pyrazol-1-yl)-N-(2,2,2-trifluoroethyl)pyrimidine-4-amine], for which the melting point was 136 to 139 °C. Also, the pest or weed control at 500 ppm with Erysiphe graminis turned out to be 100%. For the same compound, the pest or weed control at 500 ppm in the data set on Pyricularia oryzae stood at 100%. Further, the pest or weed control at 500 ppm in the data set on Septoria nodorum stood at 100%. In addition, the pest or weed control at 500 ppm in data set [1] amounted to 100%. In addition, in the data set on Rhizoctonia solani, the pest or weed control at 500 ppm worked out at 100%.
For the compound `Cc1cc(C)n(-c2nc(C)c(C)c(NN)n2)n1` [Comparative Compound 2, reference compound], the pest or weed control at 500 ppm in the data set with Septoria nodorum is 75%; in the data set with Rhizoctonia solani, 50%. In the data set on Botrytis cinerea, the control level is 25%.
The compound `CCC(C)c1c(NCC(F)(F)F)nc(-n2cccn2)nc1OC(F)F` (stereo not drawn) [Compound No. 0358, 5-sec-butyl-6-difluoromethoxy-2-(1H-pyrazol-1-yl)-N-(2,2,2-trifluoroethyl)pyrimidine-4-amine] registered a melting point of 94 to 95 °C. For the same compound, in the data set on Erysiphe graminis, the pest or weed control at 500 ppm turned out to be 100%. Also, the pest or weed control at 500 ppm with Pyricularia oryzae is 100%. Further, the pest or weed control at 500 ppm in data set [1] is 100%.
Compound `CCOC(=O)c1cnn(-c2nc(Cl)c(C(C)CC)c(NCC(F)(F)F)n2)c1N` (stereo not drawn) [Compound No. 0601, ethyl 5-amino-1-[5-sec-butyl-4-chloro-6-(2,2,2-trifluoroethylamino)pyrimidin-2-yl]-1H-pyrazol-4-carboxylate] returned a melting point of 173 to 174 °C.
The same measure, in the same setting: the result for `CCC(C)c1c(O)nc(-n2cccn2)nc1NCC(F)(F)F` (stereo not drawn) [Compound No. 0353, 5-sec-butyl-2-(1H-pyrazol-1-yl)-6-(2,2,2-trifluoroethylamino)pyrimidin-4-ol] reads 141 to 143 °C.
Turning to `CCC(C)c1c(F)nc(-n2cccn2)nc1NCC(F)(F)F` (stereo not drawn) [Compound No. 0349, 5-sec-butyl-6-fluoro-2-(1H-pyrazol-1-yl)-N-(2,2,2-trifluoroethyl)pyrimidine-4-amine], the melting point was in the range of 132 to 134 °C. Moreover, the pest or weed control at 500 ppm in the data set on Erysiphe graminis came out at 100%. Further, the pest or weed control at 500 ppm in the data set with Pyricularia oryzae was found to be 100%. In the data set with Septoria nodorum, the pest or weed control at 500 ppm is 100%. Also, the pest or weed control at 500 ppm in data set [1] was 100%. Besides, the pest or weed control at 500 ppm with Rhizoctonia solani was determined as 100%.

The values are drawn from patent US20090042917A1, “Aminopyrimidine Derivative and Plant Disease Control Agent for Agricultural or Horticultural Use” (KUMIAI CHEMICAL INDUSTRY CO., LTD., priority 2006, published 2009).
